In assay [1] the test system is Galanin receptor (GalR1, GalR2). Kind of assay: Galanin receptor activation assays, overall statements in words. It counts as cell-based. The settings on record: for preference for stimulating GalR2 (over GalR1), in words: GalR2 versus GalR1; for activity, in words: overall statement on galanin receptor activation. The procedure: The biological activity of the (lanthi)galanins was determined in CHO-K1 cell lines that express either the GalR1, or GalR2 receptor. Activity measurements were performed using commercial kits from DiscoverX for determining arrestin recruitment (GalR1, GalR2) and inhibition of cAMP synthesis (GalR1). In addition, HEK293 cell lines that express the GalR2 receptor have been used for methods from Molecular Probes to measure calcium efflux (GalR2).
Peptide was dissolved in 0.3% ammonia. Peptides were incubated o/n at 37° C. for the introduction of the lanthionine via base assisted sulfur extrusion of the disulfide bridged peptide. Different isomers could be isolated by HPLC applying the same method as was used as for the biologically produced peptides. Different isomers were purified and lyophilized. Dry peptides were dissolved in 100 mM phosphate buffer pH=7.6 and peptides were incubated o/n at 50° C. After HPLC purification peptides with a pE formation were selected and used in the different Galanin receptor activation assays.

In the next assay the target is T1, GalR2 (Homo sapiens, UniProt O43603).
T1 construct: expressed in transfected cells; host or cells: HEK293
T1 sequence (O43603 1-387): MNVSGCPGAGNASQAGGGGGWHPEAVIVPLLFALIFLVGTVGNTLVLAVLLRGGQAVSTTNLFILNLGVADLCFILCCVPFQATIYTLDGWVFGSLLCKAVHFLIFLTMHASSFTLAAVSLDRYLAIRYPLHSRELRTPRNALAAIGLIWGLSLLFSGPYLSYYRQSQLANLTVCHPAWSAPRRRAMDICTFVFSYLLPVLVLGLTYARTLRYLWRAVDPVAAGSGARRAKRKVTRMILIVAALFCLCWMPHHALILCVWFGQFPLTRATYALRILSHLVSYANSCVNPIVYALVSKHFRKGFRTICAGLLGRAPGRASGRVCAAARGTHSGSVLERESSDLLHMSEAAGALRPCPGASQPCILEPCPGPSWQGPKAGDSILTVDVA
It counts as cell-based. To be noted: for efficacy via GalR2 compared with GalWtb, in words: GalR2, Table 1 data. The procedure:
ND indicates ‘not determined’.
Peptide was dissolved in 0.3% ammonia. […] Different isomers were purified and lyophilized.

The results in this text go back to patent publication US10501514B2, “Cyclic galanin-analogs and uses thereof” (LanthioPep B.V., priority 2015, dated 2019).

“Also recorded” adds a separate entry of the source.

Take `CC(C)C[C@H](NC(=O)[C@H](CC(C)C)NC(=O)[C@H](Cc1ccc(O)cc1)NC(=O)CNC(=O)[C@H](C)NC(=O)[C@H](C)NC(=O)[C@H](CC(N)=O)NC(=O)[C@H](CC(C)C)NC(=O)[C@H](CC(N)=O)NC(=O)[C@H](Cc1c[nH]c2ccccc12)NC(=O)[C@@H]1CCC(=O)N1)C(=O)NCC(=O)N1CCC[C@H]1C(=O)N[C@@H](Cc1c[nH]cn1)C(=O)N[C@@H](C)C(=O)N[C@H]1C(=O)NCC(=O)N[C@@H](CC(N)=O)C(=O)N[C@H](C(=O)N[C@@H](CCCNC(=N)N)C(=O)O)CS[C@H]1C` [GalM74b]: the “preference for stimulating GalR2 (over GalR1), in words” value (from here on “preference … (over GalR1), in words”) in assay [1] is “preference for stimulating GalR2”.

For the molecule `CC(C)C[C@H](NC(=O)[C@H](CC(C)C)NC(=O)[C@H](Cc1ccc(O)cc1)NC(=O)CNC(=O)[C@H](C)NC(=O)[C@H](C)NC(=O)[C@H](CC(N)=O)NC(=O)[C@H](CC(C)C)NC(=O)[C@H](CC(N)=O)NC(=O)[C@H](Cc1c[nH]c2ccccc12)NC(=O)[C@@H]1CCC(=O)N1)C(=O)NCC(=O)N1CCC[C@H]1C(=O)N[C@H]1C(=O)N[C@@H](C)C(=O)N[C@@H](C(C)C)C(=O)N[C@H](C(=O)O)CS[C@H]1C` [GalM87], the “preference … (over GalR1), in words” value in assay [1] was “preference for stimulating GalR2”.

For `CC(C)C[C@H](NC(=O)[C@H](CC(C)C)NC(=O)[C@H](Cc1ccc(O)cc1)NC(=O)CNC(=O)[C@H](C)NC(=O)[C@H](C)NC(=O)[C@H](CC(N)=O)NC(=O)[C@H](CC(C)C)NC(=O)[C@H](CC(N)=O)NC(=O)[C@H](Cc1c[nH]c2ccccc12)NC(=O)[C@@H]1CCC(=O)N1)C(=O)NCC(=O)N[C@@H](C)C(=O)N[C@H]1C(=O)N[C@@H](C)C(=O)N[C@@H](C(C)C)C(=O)N[C@H](C(=O)N[C@@H](CC(N)=O)C(=O)N[C@@H](Cc2c[nH]cn2)C(=O)O)CS[C@H]1C` [GalM54tr], the “preference … (over GalR1), in words” value in assay [1] is on record as “GalR2-specific”.

Consider `CC(C)C[C@@H]1NC(=O)[C@H](CC(C)C)NC(=O)[C@H](Cc2ccc(O)cc2)NC(=O)[C@H](NC(=O)[C@H](C)NC(=O)[C@H](C)NC(=O)[C@H](CC(N)=O)NC(=O)[C@H](CC(C)C)NC(=O)[C@H](CC(N)=O)NC(=O)[C@H](Cc2c[nH]c3ccccc23)NC(=O)[C@@H]2CCC(=O)N2)CSC[C@@H](C(=O)O)NC1=O` [GalM82], for which the “activity, in words” value in assay [1] is recorded as “low activity”.

Consider `CC(C)C[C@H](NC(=O)[C@H](CC(C)C)NC(=O)[C@H](Cc1ccc(O)cc1)NC(=O)CNC(=O)[C@H](C)NC(=O)[C@H](C)NC(=O)[C@H](CC(N)=O)NC(=O)[C@H](CC(C)C)NC(=O)[C@H](CC(N)=O)NC(=O)[C@H](Cc1c[nH]c2ccccc12)NC(=O)[C@@H]1CCC(=O)N1)C(=O)N[C@@H](C)C(=O)N[C@H]1C(=O)N[C@@H](Cc2c[nH]cn2)C(=O)N[C@@H](C)C(=O)N[C@H](C(=O)NCC(=O)N[C@@H](CC(N)=O)C(=O)N[C@@H](Cc2c[nH]cn2)C(=O)N[C@@H](CCCNC(=N)N)C(=O)O)CS[C@H]1C` [GalM50b], for which the “preference … (over GalR1), in words” value in assay [1] is “preference for stimulating GalR2”.

With `CC(C)C[C@@H]1NC(=O)[C@H](Cc2ccc(O)cc2)NC(=O)C(NC(=O)[C@H](C)NC(=O)[C@H](C)NC(=O)[C@H](CC(N)=O)NC(=O)[C@H](CC(C)C)NC(=O)[C@H](CC(N)=O)NC(=O)[C@H](Cc2c[nH]c3ccccc23)NC(=O)CN)CSC[C@@H](C(=O)NCC(=O)N2CCC[C@H]2C(=O)N[C@@H](Cc2c[nH]cn2)C(=O)N[C@@H](C)C(=O)N[C@H](C(=O)NCC(=O)N[C@@H](CC(N)=O)C(=O)N[C@@H](Cc2c[nH]cn2)C(=O)N[C@@H](CCCNC(=N)N)C(=O)O)C(C)C)NC(=O)[C@H](CC(C)C)NC1=O` (stereo partly drawn) [GalM73], in assay [1], the “activity, in words” value is given as “retained some activity”.

Turning to `CC(C)C[C@H](NC(=O)[C@H](CC(C)C)NC(=O)[C@H](Cc1ccc(O)cc1)NC(=O)CNC(=O)[C@H](C)NC(=O)[C@H](C)NC(=O)[C@H](CC(N)=O)NC(=O)[C@H](CC(N)=O)NC(=O)[C@H](CC(N)=O)NC(=O)[C@H](Cc1c[nH]c2ccccc12)NC(=O)CN)C(=O)NCC(=O)N[C@@H](C)C(=O)N[C@H]1C(=O)N[C@@H](C)C(=O)N[C@@H](C(C)C)C(=O)N[C@H](C(=O)N[C@@H](CC(N)=O)C(=O)N[C@@H](Cc2c[nH]cn2)C(=O)N[C@@H](CCCNC(=N)N)C(=O)O)CS[C@H]1C` [GalM94], the “efficacy via GalR2 compared with GalWtb, in words” value on GalR2 is “comparable efficacy via GalR2 like GalWtb”.

As for `CC(C)C[C@H](NC(=O)[C@H](CC(C)C)NC(=O)[C@H](Cc1ccc(O)cc1)NC(=O)CNC(=O)[C@H](C)NC(=O)[C@H](C)NC(=O)[C@H](CC(N)=O)NC(=O)[C@H](CC(C)C)NC(=O)[C@H](CC(N)=O)NC(=O)[C@H](Cc1c[nH]c2ccccc12)NC(=O)[C@@H]1CCC(=O)N1)C(=O)N[C@@H](C)C(=O)N[C@H]1C(=O)N[C@@H](Cc2c[nH]cn2)C(=O)N[C@@H](C)C(=O)N[C@H](C(=O)NCC(=O)O)CS[C@H]1C` [GalM89b], the “preference … (over GalR1), in words” value in assay [1] was “preference for stimulating GalR2”.

As for `CC(C)C[C@H](NC(=O)[C@H](CC(C)C)NC(=O)[C@H](Cc1ccc(O)cc1)NC(=O)CNC(=O)[C@H](C)NC(=O)[C@H](C)NC(=O)[C@H](CC(N)=O)NC(=O)[C@@H](NC(=O)[C@H](CC(N)=O)NC(=O)[C@H](Cc1c[nH]c2ccccc12)NC(=O)CN)C(C)C)C(=O)NCC(=O)N[C@@H](C)C(=O)N[C@H]1C(=O)N[C@@H](C)C(=O)N[C@@H](C(C)C)C(=O)N[C@H](C(=O)N[C@@H](CC(N)=O)C(=O)N[C@@H](Cc2c[nH]cn2)C(=O)N[C@@H](CCCNC(=N)N)C(=O)O)CS[C@H]1C` [GalM92], at GalR2, the “efficacy via GalR2 compared with GalWtb, in words” value is listed as “comparable efficacy via GalR2 like GalWtb”.

For the molecule `CC(C)C[C@@H]1NC(=O)[C@H](CC(C)C)NC(=O)[C@H](Cc2ccc(O)cc2)NC(=O)C(NC(=O)[C@H](C)NC(=O)[C@H](C)NC(=O)[C@H](CC(N)=O)NC(=O)[C@H](CC(C)C)NC(=O)[C@@H](NC(=O)[C@H](Cc2c[nH]c3ccccc23)NC(=O)[C@@H]2CCC(=O)N2)[C@@H](C)O)CSCC(C(=O)O)NC1=O` (single isomer, unassigned) [4179 C, pEWTLNAAlanYLLlan], on GalR2, the “Ratio EC50s relative to Gal-(1-15), GalR2 Ca efflux” value stood at 248.

In the case of `CC(C)C[C@H](NC(=O)[C@H](CC(C)C)NC(=O)[C@H](Cc1ccc(O)cc1)NC(=O)CNC(=O)[C@H](C)NC(=O)[C@H](C)NC(=O)[C@H](CC(N)=O)NC(=O)[C@H](CC(C)C)NC(=O)[C@H](CC(N)=O)NC(=O)[C@H](Cc1c[nH]c2ccccc12)NC(=O)[C@@H]1CCC(=O)N1)C(=O)NCC(=O)N[C@@H](C)C(=O)N[C@H]1C(=O)N[C@@H](C)C(=O)N[C@@H](C(C)C)C(=O)N[C@H](C(=O)N[C@@H](CC(N)=O)C(=O)N[C@@H](Cc2c[nH]cn2)C(=O)N[C@@H](CCCNC(=N)N)C(=O)O)CS[C@H]1C` [GalM54], in assay [1], the “preference … (over GalR1), in words” value is “GalR2-specific; also recorded: preference for stimulating GalR2”. The “β-arrestin recruitment via GalR2, preference in words” value at GalR2 (FIG. 2) is “preferentially stimulates β-arrestin recruitment via GalR2”.
